From patent publication US20220143045A1, “PROGESTERONE RECEPTOR ANTAGONIST DOSAGE FORM” (BAYER PHARMA AKTIENGESELLSCHAFT, priority 2013, published 2022)
Where “and” joins values, the source holds several entries; their conditions need not be identical. Equal values may be shown once.

Legend:
Assay type in all cases: in vivo, human
healthy female subjects [1] = assay: Return of bleeding after end of treatment (84 days); conditions: for Number of days until first bleeding after end of treatment (mean ± SD) / Number of days until first bleeding after end of treatment (min − max): PPS
Description: (§1) As described in example 2.
The first day of bleeding after the end of the treatment was marked.

healthy female subjects [2] = assay: Dose-effect of 84 days treatment: bleeding pattern (non-bleeding rate), daily self-assessment
Description: • 1. Healthy female subjects, sterilized by tubal ligation • 2. Age at screening: 18-45 years • 3. Body mass index (BMI) at screening: ≥18 and ≤32 kg/m^2 • 4. At least 3 consecutive regular menstrual cycles with a cycle length of 24-35 days before first screening examination according to the subject's history • 5. Absence of clinically relevant abnormal findings in the pre-treatment endometrial biopsy • 6. Adequate venous access (frequent blood sampling)
The subject had to start the intake of the study drugs on the first or second day of menstrual bleeding after the pre-treatment cycle. The pre-treatment cycle started on the first day of the subject's menstrual bleeding after screening examinations had shown that the subject was eligible for further participation. After the pre-treatments cycle treatment was started. The treatment period started with the first and ended with the last intake of compound 1. For each intake day the subject received one bottle containing 4 tablets. The number of tablets taken and the intake time had to be documented in the diary.
The evaluation of bleeding pattern was based on a daily self-assessment of the bleeding intensity by the subject. These assessments were categorized as defined below. The subjects were provided with an explanation of the categories in local language, and were asked to document the bleeding intensity in their diaries accordingly (one entry per day).
Administration of compound 1 occurred during 84 days (multiple doses administration).

healthy female subjects [3] = assay: Ovulation inhibition: follicle size, estradiol (E2), progesterone (P)
Description: Protocol: Randomized Study population of healthy female subjects as described in example 2 above.
Blood samples were obtained from healthy female subjects for the determination of Estradiol (E2), Progesterone (P), luteinizing hormone (LH) and follicle stimulating hormone (FSH) in serum and taken at the same time points as listed below during the pre-treatment cycle, the treatment and follow-up cycle. Transvaginal ultrasound (TVU) was used to monitor ovarian follicular growth during pretreatment (days 9 and 21), treatment (days 7, 14, 21, 28, 35, 42, 49, 56, 63, 70, 77, 84) and follow-up cycle (days 9 and 21).

healthy female subjects [4] = assay: Endometrial thickness by transvaginal ultrasound during treatment; conditions: 2 mg, 84 days, versus other dosages (FIG. 2)
Method: as §1
The endometrial thickness was measured in the medio-sagittal section as double-layer in millimeters using transvaginal ultrasound.

[5] = 0.5 mg once daily per os, 84 days
[6] = 0.1 mg, n = 11, treatment period
[7] = 0.1 mg, n = 11, treatment period, (third category)
[8] = 0.5 mg, n = 11, treatment period
[9] = 0.5 mg, n = 11, treatment period, (third category)
[10] = 1 mg, n = 12, treatment period, (third category)
[11] = 2 mg, n = 12, treatment period, (third category)
[12] = 5 mg, n = 11, treatment period, (third category)

With `C[C@]12C[C@H](c3ccc(S(C)(=O)=O)cc3)C3=C4CCC(=O)C=C4CC[C@H]3[C@@H]1CC[C@@]2(O)C(F)(F)C(F)(F)F` [compound 1, (11β,17β)-17-Hydroxy-11-[4-(methylsulphonyl)phenyl]-17-(pentafluoroethyl)estra-4,9-dien-3-one] the “Number of days until first bleeding after end of treatment (mean ± SD)” value (from here on “Number … (mean ± SD)”) (healthy female subjects [1]; 0.1 mg, n = 11) was 12.2 ± 9.9 days, the “Number of days until first bleeding after end of treatment (min − max)” value (shortened to “Number … (min − max)”) (healthy female subjects [1]; 0.1 mg, n = 11) was “(3 − 35) days” and the “Number … (mean ± SD)” value (healthy female subjects [1]; 0.5 mg, n = 11) was 14.8 ± 10.2 days. The “Number … (min − max)” value (healthy female subjects [1]; 0.5 mg, n = 11) was “( 1 − 28) days”, the “Number … (mean ± SD)” value (healthy female subjects [1]; 1 mg, n = 10) was 20.3 ± 6.2 days and the “Number … (min − max)” value (healthy female subjects [1]; 1 mg, n = 10) was “(8 − 28) days”. For the same compound, the “Number … (mean ± SD)” value (healthy female subjects [1]; 2 mg, n = 12) was 25 days and 25.8 ± 11.1 days, the “Number … (min − max)” value (healthy female subjects [1]; 2 mg, n = 12) was “(9 − 52) days” and the “delayed return of bleeding after treatment, one subject” value (healthy female subjects [1]; 2 mg, single subject) was “about 52 days”. The “Number … (mean ± SD)” value (healthy female subjects [1]; 5 mg, n = 11) was 20.9 ± 10.9 days, the “Number … (min − max)” value (healthy female subjects [1]; 5 mg, n = 11) was “(1 − 38) days” and the “number of subjects with no further bleeding during the treatment period (out of 11)” value (healthy female subjects [2]; [5]) was 3. The “subjects with no further bleeding during the treatment period” value (healthy female subjects [2]; [5]) was 27%, the “number of days of bleeding during the treatment period” value (healthy female subjects [2]; 0.1-5 mg once daily per os, 84 days) was “marked and dose-dependent reduction” and the “dosage at which 50% of dose-dependent reduction of bleeding is observed” value (healthy female subjects [2]; 84 days treatment, posterior of non-bleeding rate (FIG. 1)) was 0.7 mg. The “saturation of non-bleeding rate” value (healthy female subjects [2]; from 2 mg up to 5 mg, 84 days) was “around 95%”, the “amenorrhea (non-bleeding)” value (healthy female subjects [2]; healthy subjects, dosage of 2 mg) was 92.5% and the “number of subjects with Follicle size ≤ 13 mm” value (healthy female subjects [3]; [6]) was 1. For the same compound, the “percentage of subjects with Follicle size ≤ 13 mm” value (healthy female subjects [3]; [6]) was 9%, the “number of subjects with Follicle size > 13 mm + Estradiol > 27.2 pg/mL + Progesterone < 1.57 μg/L” value (healthy female subjects [3]; [7]) was 10 and the “percentage of subjects with Follicle size > 13 mm + Estradiol > 27.2 pg/mL + Progesterone < 1.57 μg/L” value (healthy female subjects [3]; [7]) was 91%. For the same compound, the “number of subjects with Follicle size > 13 mm + Estradiol > 27.2 pg/mL + Progesterone < 1.57 μg/L” value (healthy female subjects [3]; [8]) was 6, the “percentage of subjects with Follicle size > 13 mm + Estradiol > 27.2 pg/mL + Progesterone < 1.57 μg/L” value (healthy female subjects [3]; [8]) was 55% and the “number of subjects with Follicle size > 13 mm + Estradiol > 27.2 pg/mL + Progesterone < 1.57 μg/L” value (healthy female subjects [3]; [9]) was 5. The “percentage of subjects with Follicle size > 13 mm + Estradiol > 27.2 pg/mL + Progesterone < 1.57 μg/L” value (healthy female subjects [3]; [9]) was 45%, the “number of subjects with Follicle size > 13 mm + Estradiol > 27.2 pg/mL + Progesterone < 1.57 μg/L” value (healthy female subjects [3]; 1 mg, n = 12, treatment period) was 9 and the “number of subjects with Follicle size ≤ 13 mm” value (healthy female subjects [3]; 1 mg, n = 12, treatment period) was 1. For the same compound, the “percentage of subjects with Follicle size > 13 mm + Estradiol > 27.2 pg/mL + Progesterone < 1.57 μg/L” value (healthy female subjects [3]; 1 mg, n = 12, treatment period) was 75%, the “percentage of subjects with Follicle size ≤ 13 mm” value (healthy female subjects [3]; 1 mg, n = 12, treatment period) was 8% and the “number of subjects with Follicle size > 13 mm + Estradiol > 27.2 pg/mL + Progesterone < 1.57 μg/L” value (healthy female subjects [3]; [10]) was 2. For the same compound, the “percentage of subjects with Follicle size > 13 mm + Estradiol > 27.2 pg/mL + Progesterone < 1.57 μg/L” value (healthy female subjects [3]; [10]) was 17%, the “number of subjects with Follicle size > 13 mm + Estradiol > 27.2 pg/mL + Progesterone < 1.57 μg/L” value (healthy female subjects [3]; 2 mg, n = 12, treatment period) was 11 and the “percentage of subjects with Follicle size > 13 mm + Estradiol > 27.2 pg/mL + Progesterone < 1.57 μg/L” value (healthy female subjects [3]; 2 mg, n = 12, treatment period) was 92%. The “number of subjects with Follicle size > 13 mm + Estradiol > 27.2 pg/mL + Progesterone < 1.57 μg/L” value (healthy female subjects [3]; [11]) was 1, the “percentage of subjects with Follicle size > 13 mm + Estradiol > 27.2 pg/mL + Progesterone < 1.57 μg/L” value (healthy female subjects [3]; [11]) was 8% and the “number of subjects with Follicle size > 13 mm + Estradiol > 27.2 pg/mL + Progesterone < 1.57 μg/L” value (healthy female subjects [3]; 5 mg, n = 11, treatment period) was 9. For the same compound, the “number of subjects with Follicle size ≤ 13 mm” value (healthy female subjects [3]; 5 mg, n = 11, treatment period) was 1, the “percentage of subjects with Follicle size > 13 mm + Estradiol > 27.2 pg/mL + Progesterone < 1.57 μg/L” value (healthy female subjects [3]; 5 mg, n = 11, treatment period) was 82% and the “percentage of subjects with Follicle size ≤ 13 mm” value (healthy female subjects [3]; 5 mg, n = 11, treatment period) was 9%. For the same compound, the “number of subjects with Follicle size > 13 mm + Estradiol > 27.2 pg/mL + Progesterone < 1.57 μg/L” value (healthy female subjects [3]; [12]) was 1, the “percentage of subjects with Follicle size > 13 mm + Estradiol > 27.2 pg/mL + Progesterone < 1.57 μg/L” value (healthy female subjects [3]; [12]) was 9% and the “ovulation during treatment (progesterone value <1.57 μg/L)” value (healthy female subjects [3]; dosages ≥0.5 mg, 84 days) was “No ovulation occurred in most of the subjects”. The “maximum thickness of the endometrium within treatment epoch” value (healthy female subjects [4]) was “lower maximum thickness of the endometrium compared to other dosages”.
